Assay results: ChEMBL document CHEMBL4251644, “Synthesis and biological characterization of novel rose bengal derivatives with improved amphiphilicity for sono-photodynamic therapy” (Eur J Med Chem, 2018)
Activity calls are given as the source filed them. The rule behind the calls is not given here.

Assays:
[1] = system: HepG2; assay: Photodynamic anticancer activity in human HepG2 cells preincubated for 2 hrs followed by light exposure at 27 J/cm2 for 30 mins and subsequent incubation for 24 hrs by MTT assay; details: HepG2, light or radiation study
[2] = Drug uptake in mouse B16F10 cells assessed as localization in mitochondria at 5 uM after 1.5 hrs by MitoTracker Green staining-based fluorescence assay; format: ADME; details: b16-f10, 1.5 h
[3] = system: MCF7; assay: Toxicity in human MCF7 cells up to 5 uM incubated in dark for 24 hrs by MTT assay; format: cell-based; details: mcf7, 24 h
[4] = Drug uptake in human HepG2 cells at 5 uM after 2 hrs by confocal microscopy; format: ADME, cell-based; details: hepg2, 2 h
[5] = system: B16-F10; assay: Toxicity in mouse B16F10 cells up to 5 uM incubated in dark for 24 hrs by MTT assay; format: cell-based; details: b16-f10, 24 h
[6] = Octanol-water partition coefficient, log P of the compound after 10 mins; format: physicochemical
[7] = system: B16-F10; assay: Photodynamic anticancer activity in mouse B16F10 cells preincubated for 2 hrs followed by light exposure at 27 J/cm2 for 30 mins and subsequent incubation for 24 hrs by MTT assay; details: B16-F10, light or radiation study
[8] = system: HepG2; assay: (§1) In vitro sonodynamic anticancer activity against human HepG2 cells at 25 uM preincubated for 2 hrs followed by exposure to ultrasound at 1.0 MHz and 2 W/cm2 intensity for 3 mins and subsequent incubation for 24 hrs by MTT assay; format: functional, cell-based
[9] = system: MCF7; assay: Photodynamic anticancer activity in human MCF7 cells preincubated for 2 hrs followed by light exposure at 27 J/cm2 for 30 mins and subsequent incubation for 24 hrs by MTT assay; details: MCF7, light or radiation study
[10] = system: HepG2; assay: Toxicity in human HepG2 cells up to 5 uM incubated in dark for 24 hrs by MTT assay; format: cell-based; details: hepg2, 24 h
[11] = Drug uptake in mouse B16F10 cells assessed as localization in lysosomes at 5 uM after 1.5 hrs by LysoTracker staining-based fluorescence assay; format: ADME, subcellular, Lysosome; details: b16-f10, 1.5 h
[12] = system: HepG2; assay: Induction of intracellular ROS generation in human HepG2 cells at 1 uM preincubated for 2 hrs followed by exposure to ultrasound at 1.0 MHz and 2 W/cm2 intensity for 3 mins followed by immediate irradiation with light at 27 J/cm2 for 30 mins by DCFH-DA staining-based fluorescence analysis; format: functional, cell-based
[13] = system: HepG2; assay: Induction of intracellular ROS generation in human HepG2 cells at 1 uM preincubated for 2 hrs followed by light exposure at 27 J/cm2 for 30 mins by DCFH-DA staining-based fluorescence analysis; format: functional, cell-based
[14] = system: HepG2; assay: as §1, with “sono-photodynamic” for “sonodynamic”, “0.5” for “25”, “mins followed by immediate irradiation with light at 27 J/cm2 for 30 mins” for “mins”; format: functional, cell-based
[15] = system: HepG2; assay: Induction of intracellular ROS generation in human HepG2 cells at 1 uM preincubated for 2 hrs followed by exposure to ultrasound at 1.0 MHz and 2 W/cm2 intensity for 3 mins by DCFH-DA staining-based fluorescence analysis; format: functional, cell-based

Row | Structure (SMILES) | IC50 [1] | Drug uptake [2] | Activity [3] | Drug uptake [4] | Activity [5] | logP at 10 min [6] | IC50 [7] | Activity [8] | IC50 [9] | Activity [10] | Drug uptake [11] | Activity [12] | Activity [13] | Activity [14] | Activity [15]
1 | O=C(CCCCCCCOC(=O)c1c(Cl)c(Cl)c(Cl)c(Cl)c1-c1c2cc(I)c(=O)c(I)c-2oc2c(I)c(O)c(I)cc12)Nc1cccc2cccnc12 | 610 nM | Active | Non-Toxic | Active | Non-Toxic | 1.21 | 1190 nM | inactive | 850 nM | Non-Toxic | Active |  |  |  | 
2 | O=C(O)CCCCCCCOC(=O)c1c(Cl)c(Cl)c(Cl)c(Cl)c1-c1c2cc(I)c(=O)c(I)c-2oc2c(I)c(O)c(I)cc12 | 2150 nM | Active | Non-Toxic | Active | Non-Toxic | 0.91 | 2170 nM |  | 2880 nM | Non-Toxic | Active |  |  |  | 
3 | COCCOCCOC(=O)CCCCCCCOC(=O)c1c(Cl)c(Cl)c(Cl)c(Cl)c1-c1c2cc(I)c(=O)c(I)c-2oc2c(I)c(O)c(I)cc12 | 280 nM | Active | Non-Toxic | Active | Non-Toxic | 0.92 | 780 nM | Active | 460 nM | Non-Toxic | Active | Active | Active | Active | inactive
4 | O=C([O-])c1c(Cl)c(Cl)c(Cl)c(Cl)c1-c1c2cc(I)c(=O)c(I)c-2oc2c(I)c([O-])c(I)cc12.[Na+].[Na+] [ROSE BENGAL SODIUM] | > 5000 nM | Active | Non-Toxic | Active | Non-Toxic | -0.56 | > 5000 nM |  | > 5000 nM | Non-Toxic | Active |  |  |  | 
5 | COCCOCCOCCOCCOC(=O)CCCCCCCOC(=O)c1c(Cl)c(Cl)c(Cl)c(Cl)c1-c1c2cc(I)c(=O)c(I)c-2oc2c(I)c(O)c(I)cc12 | 670 nM | Active | Non-Toxic | Active | Non-Toxic | 0.8 | 1230 nM | Active | 1260 nM | Non-Toxic | Active |  |  |  | 
6 | O=C(CCCCCCCOC(=O)c1c(Cl)c(Cl)c(Cl)c(Cl)c1-c1c2cc(I)c(=O)c(I)c-2oc2c(I)c(O)c(I)cc12)Nc1cccc2ccccc12 | 880 nM | Active | Non-Toxic | Active | Non-Toxic | 0.94 | 1440 nM | inactive | 1260 nM | Non-Toxic | Active |  |  |  | 
